Results reported in patent US9365583B2, “Substituted pyrazoles and uses thereof” (Genentech, Inc., priority 2013, dated 2016).

biological target: T1, N-terminally GST-tagged DLK (catalytic domain amino acid 1-520) (Homo sapiens, UniProt Q12852); test: DLK TR-FRET inhibition assay; assay type: biochemical; details: 5 nM GST-DLK, 40 nM HIS-MKK4 K131M substrate, 30 μM ATP, 60 minutes at ambient temperature
T1 construct: N-terminally GST-tagged DLK (catalytic domain amino acid 1-520); purchased Carna Bioscience
T1 sequence (Q12852 1-520): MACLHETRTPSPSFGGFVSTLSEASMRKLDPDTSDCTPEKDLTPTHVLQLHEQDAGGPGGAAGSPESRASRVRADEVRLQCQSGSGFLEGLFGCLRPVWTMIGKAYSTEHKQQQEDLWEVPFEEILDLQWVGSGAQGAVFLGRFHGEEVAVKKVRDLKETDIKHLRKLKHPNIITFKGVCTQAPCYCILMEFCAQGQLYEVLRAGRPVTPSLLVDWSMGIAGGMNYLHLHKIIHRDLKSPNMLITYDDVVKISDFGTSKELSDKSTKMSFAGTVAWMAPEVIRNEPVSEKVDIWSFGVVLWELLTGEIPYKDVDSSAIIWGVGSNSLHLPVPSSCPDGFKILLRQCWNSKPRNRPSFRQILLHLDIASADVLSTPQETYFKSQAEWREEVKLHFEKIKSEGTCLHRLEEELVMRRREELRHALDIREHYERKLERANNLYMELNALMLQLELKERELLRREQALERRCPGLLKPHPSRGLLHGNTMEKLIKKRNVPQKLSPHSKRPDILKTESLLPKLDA
Summary of the method: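 Phosphorylated MKK4 was quantified by TR-FRET (Eu-labelled anti-phospho-MKK4, D2 anti-HIS; 3 h, 665 and 615 nm emission) after EDTA quench. Reactions held 5 nM GST-tagged DLK catalytic domain (1-520), 40 nM HIS-MKK4 K131M substrate, 30 μM ATP and compound (3-fold series from 20 uM), 60 min, room temperature, pH 7.5.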

Compound | Ki [nM]
CC(C)n1nc(-c2cnc(N)c(OC(F)F)c2)cc1[C@H]1[C@@H]2C[C@@H](N3CC(F)(F)C3)C[C@@H]21 [compound 42, 5-(5-((1R,3s,5S,6r)-3-(3,3-difluoroazetidin-1-yl)bicyclo[3.1.0]hexan-6-yl)-1-isopropyl-1H-pyrazol-3-yl)-3-(difluoromethoxy) pyridin-2-amine] | 4.53
CC(C)n1nc(-c2cnc(N)c(C(F)(F)F)c2)cc1[C@H]1[C@@H]2C[C@@]3(CCN3C3COC3)C[C@@H]21 [compound 151, 5-(1-isopropyl-5-((1′R,2r,5′S,6′r)-1-(oxetan-3-yl)spiro[azetidine-2,3′-bicyclo[3.1.0]hexan]-6′-yl)-1H-pyrazol-3-yl)-3-(trifluoromethyl) pyridin-2-amine] | 9
CC(C)n1nc(-c2cnc(N)c(C(F)(F)F)c2)cc1[C@H]1[C@@H]2C[C@H](N3CCOC3=O)C[C@@H]21 [compound 59, 3-((1R,3r,5S,6r)-6-(3-(6-amino-5-(trifluoromethyl)pyridin-3-yl)-1-isopropyl-1H-pyrazol-5-yl)bicyclo[3.1.0]hexan-3-yl) oxazolidin-2-one] | 3.06
COCC1(F)C[C@@H]2[C@H](C1)[C@H]2c1cc(-c2cnc(N)c(C(F)(F)F)c2)nn1C(C)C (stereo partly drawn) [compound 166, 5-(5-((1R,5S,6r)-3-fluoro-3-(methoxymethyl)bicyclo[3.1.0]hexan-6-yl)-1-isopropyl-1H-pyrazol-3-yl)-3-(trifluoromethyl)pyridin-2-amine] | 6.7
CC(C)n1nc(-c2cnc3ccn([C@H](C)c4ccccn4)c3c2)cc1[C@H]1[C@@H]2C[C@H](N3CCOCC3)C[C@@H]21 [compound 26, 4-((1R,3R,5S,6r)-6-(1-isopropyl-3-(1-((R)-1-(pyridin-2-yl)ethyl)-1H-pyrrolo[3,2-b]pyridin-6-yl)-1H-pyrazol-5-yl)bicyclo[3.1.0]hexan-3-yl)morpholine] | 75.6
CC(C)n1nc(-c2cnc(N)c(C(F)(F)F)c2)cc1[C@H]1[C@@H]2C[C@H](NCC(F)F)C[C@@H]21 [compound 253, 5-(5-((1R,3r,5S,6r)-3-((2,2-difluoroethyl)amino)bicyclo[3.1.0]hexan-6-yl)-1-isopropyl-1H-pyrazol-3-yl)-3-(trifluoromethyl) pyridin-2-amine] | 3.4
CC(C)n1nc(-c2cnc(N)c(OC(F)F)c2)cc1[C@H]1[C@@H]2C[C@@H](N3C[C@@H](F)[C@@H](F)C3)C[C@@H]21 [compound 119, 3-(difluoromethoxy)-5-(5-((1R, 3s,5S,6R)-3-((3S,4R)-3,4-difluoro-pyrrolidin-1-yl)bicyclo[3.1.0]hexan-6-yl)-1-isopropyl-1H-pyrazol-3-yl)pyridin-2-amine] | 6.64
CC(C)n1nc(-c2cnc(N)c(C(F)(F)F)c2)cc1[C@H]1[C@@H]2C[C@@H](n3cccn3)C[C@@H]21 [compound 110, 5-(5-((1R,3s,5S,6r)-3-(1H-pyrazol-1-yl)bicyclo[3.1.0]hexan-6-yl)-1-isopropyl-1H-pyrazol-3-yl)-3-(trifluoromethyl)pyridin-2-amine] | 3.89
CC(C)n1nc(-c2cnc(N)c(C(F)(F)F)c2)cc1[C@@H]1[C@H]2CC[C@H](O)[C@H]21 (single isomer, unassigned) [compound 143, 6-(3-(6-amino-5-trifluoromethylpyridin-3-yl)-1-isopropyl-1H-pyrazol-5-yl)bicyclo[3.1.0]hexan-2-ol] | 31.9

The remaining compounds from weak to strong by Ki, led by results:

Ki [nM] | Compound
3 | CC(C)n1nc(-c2cnc(N)c(C(F)(F)F)c2)cc1[C@H]1[C@@H]2C[C@H](N3CCCC3=O)C[C@@H]21 [compound 35, 1-((1R,3r,5S,6r)-6-(3-(6-amino-5-(trifluoromethyl)pyridin-3-yl)-1-isopropyl-1H-pyrazol-5-yl)bicyclo[3.1.0]hexan-3-yl)pyrrolidin-2-one]
2.8 | COC1CCN([C@H]2C[C@@H]3[C@H](C2)[C@H]3c2cc(-c3cnc(N)c(OC(F)(F)F)c3)nn2C(C)C)CC1 [compound 248, 5-(1-isopropyl-5-((1R,3r,5S,6r)-3-(4-methoxypiperidin-1-yl)bicyclo[3.1.0]hexan-6-yl)-1H-pyrazol-3-yl)-3-(trifluoromethoxy) pyridin-2-amine]
2.3 | CC(C)n1nc(-c2cnc(N)c(C(F)(F)F)c2)cc1[C@H]1[C@@H]2CC(N3CC4COCC4C3)C[C@@H]21 (single isomer, unassigned) [compound 277]
2.26 | 3-(difluoromethoxy)-5-(5- ((1R,3r,5S,6r)-3-(3-fluoroazetidin-1- yl)bicyclo[3.1.0]hexan-6-yl)-1- isopropyl-1H-pyrazol-3-yl) pyridin-2-amine [compound 60]
2.17 | CC(C)n1nc(-c2cnc(N)c(C(F)(F)F)c2)cc1C1[C@H]2CC(N3CCOCC3)C[C@@H]12 (stereo partly drawn) [compound 76, 5-(1-isopropyl-5-((1R,3s,5S,6r)-3-morpholinobicyclo[3.1.0]hexan-6-yl)-1H-pyrazol-3-yl)-3-(trifluoromethyl)pyridin-2-amine]
2.1 | CC(C)n1nc(-c2cnc(N)c(OC(F)(F)F)c2)cc1[C@H]1[C@@H]2C[C@H](N3CC4(CN(C)CCO4)C3)C[C@@H]21 [compound 220, 5-(1-isopropyl-5-((1R,3r,5S,6r)-3-(8-methyl-5-oxa-2,8-diazaspiro [3.5]nonan-2-yl)bicyclo[3.1.0]hexan-6-yl)-1H-pyrazol-3-yl)-3-(trifluoromethoxy)pyridin-2-amine]
2.1 | CC(C)n1nc(-c2cnc(N)c(OC(F)F)c2)cc1[C@H]1[C@@H]2CC(F)(CN(C)C)C[C@@H]21 (mixture of isomers) [compound 178, 3-(difluoromethoxy)-5-(5-((1R, 5S,6r)-3-((dimethylamino)methyl)-3-fluorobicyclo[3.1.0]hexan-6-yl)-1-isopropyl-1H-pyrazol-3-yl)pyridin-2-amine]
1.86 | CC(C)n1nc(-c2cnc(N)c(OC(F)(F)F)c2)cc1[C@H]1[C@@H]2C[C@@H](N3CC4(COC4)C3)C[C@@H]21 [compound 58, 5-(5-((1R,3s,5S,6r)-3-(2-oxa-6-azaspiro[3.3]heptan-6-yl)bicyclo [3.1.0]hexan-6-yl)-1-isopropyl-1H-pyrazol-3-yl)-3-(trifluoromethoxy)pyridin-2-amine]
1.4 | CO[C@H]1CCN([C@@H]2C[C@@H]3[C@H](C2)[C@H]3c2cc(-c3cnc(N)c(OC(F)F)c3)nn2C(C)C)C1 [compound 215, 3-(difluoromethoxy)-5-(1-isopropyl-5-((1R,3s,5S,6S)-3-((S)-3-methoxypyrrolidin-1-yl)bicyclo [3.1.0]hexan-6-yl)-1H-pyrazol-3-yl)pyridin-2-amine]
1.1 | Nc1ncc(-c2cc([C@H]3[C@@H]4C[C@@H](N5CCOCC5)C[C@@H]43)n(CC3CC3)n2)cc1C(F)(F)F [compound 280, 5-(1-(cyclopropylmethyl)-5-((1R,3s,5S,6r)-3-morpholinobicyclo [3.1.0]hexan-6-yl)-1H-pyrazol-3-yl)-3-(trifluoromethyl)pyridin-2-amine]
1.03 | CC(C)n1nc(-c2cnc(N)c(C(F)(F)F)c2)cc1[C@H]1[C@@H]2C[C@H](N3CCCOCC3)C[C@@H]21 [compound 100, 5-(5-((1R,3r,5S,6r)-3-(1,4-oxazepan-4-yl)bicyclo[3.1.0]hexan-6-yl)-1-isopropyl-1H-pyrazol-3-yl)-3-(trifluoromethyl)pyridin-2-amine]
